Test results as given in patent US20150315241A1, “Antibiotic Peptides” (priority 2007, published 2015).
Converted amounts (≈) assume the structure as drawn. Where a SMILES comes first, the peptide text is derived from it. [ ]: non-standard residue; d: D form. The star is where a group is joined. Orn(α-tetramethylguanidino) = CN(C)C(=N[C@@H](CCCN)C(=O)*)N(C)C; hArg = N=C(N)NCCCC[C@H](N)C(=O)O; β3hR = N=C(N)NCCC[C@H](N)CC(=O)O; Cha = N[C@@H](CC1CCCCC1)C(=O)O; NMeL = CN[C@@H](CC(C)C)C(=O)O; X1 = CN(C)C(=NCC(=O)*)N(C)C; Orn = NCCC[C@H](N)C(=O)O

Key:
E. coli 45849 = experiment: Growth inhibition assay (MIC); type: cell-based, Escherichia coli
Description: (§1) The minimal inhibition concentrations (MIC) of the apidaecin-derived peptides and peptide-derivatives were determined by a growth inhibition assay using a serial peptide dilution in sterilized round-bottom 96-well plates (polystyrene, U-bottom, Greiner Bio-One GmbH) with a final volume of 100 μL per well. The bacteria, e.g., E. coli BL21 A1, were grown in nutrient broth (NB, Carl Roth GmbH+Co. KG, Karlsruhe, Germany) at 37° C. over night. To each well of the 96-well plate, 50 μL of the overnight culture adjusted to 5×10^6 CFU/mL in 1% TSB were added. Lyophilized peptides and peptidomimetics were dissolved in 1% TSB (tryptic soy broth) or water to give a final concentration of 250 μg/mL. Fifty μL of the peptide or peptidomimetics solution were added to the first well of a row on the plate and mixed. Fifty μL of the first well containing the peptide solution were transferred to the second well, mixed and again 50 μL transferred to the next well and so on. Thereby, a two-fold dilution series was obtained starting at 250 μg/mL in the first well down to 120 ng/mL in the 12th well of a row giving a final peptide or peptidomimetics concentration from 125 μg/mL (well 1) to 60 ng/mL (well 12). Plates were incubated at 37° C. for 20 hrs. The absorbance was measured at 595 nm using a TECAN micro plate spectrophotometer (Tecan, Germany). All peptides and peptidomimetics were measured in triplicates. Sterilized water was used as a negative control.
(§2) The following multidrug resistant bacteria strains were tested: • Eschericha coli 45849 and D31, • Klebsiella pneumoniae 123132 and K6, • Salmonella typhi S5 and Salmonella enterica subsp. enterica serovar Typhimurium (ATCC 700408), • Rhizobium radiobacter (ATCC 15955 deposited as Agrobacterium tumefaciens).

S. typhi S5 = type: cell-based, Salmonella typhi; conditions: S5, 20 h
Description: as §1, §2

E. coli D31 = type: cell-based, Escherichia coli; conditions: D31, 20 h
Description: as §1, §2

K. Pneumonia 123132 = experiment: Growth inhibition assay (MIC); type: cell-based, Klebsiella pneumoniae
Description: as §1, §2

[1] = test system: K. Pneumonia K6, ATCC 700603; experiment: Growth inhibition assay (MIC); type: cell-based, Klebsiella pneumoniae; conditions: multidrug resistant strain; 1% TSB, 37° C., 20 hrs
Description: as §1, §2

[2] = test system: S. enterica subsp. Enterica serovar. typhi G10215 ATCC 700408; type: cell-based, Salmonella enterica; conditions: ATCC 700408, 20 h
Description: as §1, §2

[3] = test system: R. radiobatter ATCC 15955; experiment: Growth inhibition assay (MIC); type: cell-based, Rhizobium radiobacter
Description: as §1, §2

E. coli BL 21 AI = experiment: Growth inhibition assay (MIC); type: cell-based, Escherichia coli; conditions: 1% TSB, 37° C., 20 hrs
Summary of the method: (§3)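 Two-fold serial dilution in 1% TSB, final 125 μg/mL to 60 ng/mL; inoculum 5×10^6 CFU/mL (before 1:1 mixing with peptide). Incubated 20 hrs at 37° C., growth read as absorbance at 595 nm, in triplicate with sterile water as negative control.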

M. luteus ATCC 10240 = type: cell-based, Micrococcus luteus; conditions: ATCC 10240, 20 h
Summary of the method: as §3

E. coli 1103 = type: cell-based, Escherichia coli; conditions: 1103, 20 h
Description: as §1
(§4) The bacteria strains were tested: • Eschericha coli 1103, 10233, BL 21 AI, DC 2, • Klebsiella pneumoniae 681, • Micrococcus luteus ATCC 10240, • Mycobacterium vaccae • Bactillus subtillis 347.

K. pneumonia 681 = type: cell-based, Klebsiella pneumoniae; conditions: 20 h
Description: as §1, §4

B. subtilis 347 = type: cell-based, Bactillus subtillis; conditions: 347, 20 h
Description: as §1, §4

[4] = multidrug resistant strain, 1% TSB, 37° C., 20 hrs

## CC[C@H](C)[C@H](NC(=O)[C@H](Cc1ccc(O)cc1)NC(=O)[C@@H](NC(=O)[C@@H]1CCCN1C(=O)[C@H](CCCNC(=N)N)NC(=O)[C@H](CC(N)=O)NC(=O)[C@H](CC(N)=O)NC(=O)[C@@H](N)CCCN)C(C)C)C(=O)N1CCC[C@H]1C(=O)N[C@@H](CCCN)C(=O)N1CCC[C@H]1C(=O)N[C@@H](CCCNC(=N)N)C(=O)N1CCC[C@H]1C(=O)N1CCC[C@H]1C(=O)N[C@@H](Cc1c[nH]cn1)C(=O)N1CCC[C@H]1C(=O)N[C@@H](CCCNC(=N)N)C(=O)N[C@@H](CC1CCCCC1)C(N)=O [compound 35] (H-[Orn]NNRPVYIP[Orn]PRPPHPR[Cha]-NH2)
E. coli 45849; 45849, 20 h
  MIC E. coli 45849: 16 µg/mL (≈ 7.3 µM)
S. typhi S5
  MIC S. typhi S5: 16 µg/mL (≈ 7.3 µM)
E. coli D31
  MIC E. coli D31: 8 µg/mL (≈ 3.65 µM)
K. Pneumonia 123132; 20 h
  MIC K. Pneumonia 123132: 32 µg/mL (≈ 14.6 µM)
[1]
  MIC K. Pneumonia K6, ATCC 700603: 16 µg/mL (≈ 7.3 µM)
[2]
  MIC S. enterica subsp. Enterica serovar. typhi G10215 ATCC 700408: 4 to 8 µg/mL
[3]; ATCC 15955, 20 h
  MIC R. radiobatter ATCC 15955: 2.6 µg/mL (≈ 1.19 µM)

## CC[C@H](C)[C@H](NC(=O)[C@H](Cc1ccc(O)cc1)NC(=O)[C@@H](NC(=O)[C@@H]1CCCN1C(=O)[C@H](CCCNC(=N)N)NC(=O)[C@H](CC(N)=O)NC(=O)[C@H](CC(N)=O)NC(=O)[C@H](CCCN)NC(C)=O)C(C)C)C(=O)N1CCC[C@H]1C(=O)N[C@@H](CCCNC(=N)N)C(=O)N1CCC[C@H]1C(=O)N[C@@H](CCCNC(=N)N)C(=O)N1CCC[C@H]1C(=O)N1CCC[C@H]1C(=O)N[C@@H](Cc1c[nH]cn1)C(=O)N1CCC[C@H]1C(=O)N[C@@H](CCCNC(=N)N)C(=O)N(C)[C@@H](CC(C)C)C(N)=O [compound 36] (Ac-[Orn]NNRPVYIPRPRPPHPR[NMeL]-NH2)
E. coli 45849; [4]
  MIC E. coli 45849: 4 µg/mL (≈ 1.78 µM)
S. typhi S5
  MIC S. typhi S5: 16 to 32 µg/mL
E. coli D31
  MIC E. coli D31: 8 µg/mL (≈ 3.56 µM)
K. Pneumonia 123132; [4]
  MIC K. Pneumonia 123132: 32 µg/mL (≈ 14.2 µM)
[1]
  MIC K. Pneumonia K6, ATCC 700603: 64 to 128 µg/mL
[2]
  MIC S. enterica subsp. Enterica serovar. typhi G10215 ATCC 700408: 4 to 8 µg/mL
[3]; [4]
  MIC R. radiobatter ATCC 15955: 1.3 µg/mL (≈ 0.578 µM)

## CC[C@H](C)[C@H](NC(=O)[C@H](Cc1ccc(O)cc1)NC(=O)[C@@H](NC(=O)[C@@H]1CCCN1C(=O)[C@H](CCCNC(=N)N)NC(=O)[C@H](CC(N)=O)NC(=O)[C@H](CC(N)=O)NC(=O)[C@H](CCCN)N=C(N(C)C)N(C)C)C(C)C)C(=O)N1CCC[C@H]1C(=O)N[C@@H](CCC(N)=O)C(=O)N1CCC[C@H]1C(=O)N[C@@H](CCCNC(=N)N)C(=O)N1CCC[C@H]1C(=O)N1CCC[C@H]1C(=O)N[C@@H](Cc1c[nH]cn1)C(=O)N1CCC[C@H]1C(=O)N[C@@H](CCCNC(=N)N)C(=O)N[C@@H](CC(C)C)C(N)=O [compound 120] ({Orn(α-tetramethylguanidino)}-NNRPVYIPQPRPPHPRL-NH2; N-terminus and C-terminus assumed)
S. typhi S5
  MIC S. typhi S5: 0.125 µg/mL (≈ 0.0552 µM)
E. coli D31
  MIC E. coli D31: 0.5 µg/mL (≈ 0.221 µM)
[2]
  MIC S. enterica subsp. Enterica serovar. typhi G10215 ATCC 700408: 0.125 µg/mL (≈ 0.0552 µM)

## CC[C@H](C)[C@H](NC(=O)[C@H](Cc1ccc(O)cc1)NC(=O)[C@@H](NC(=O)[C@@H]1CCCN1C(=O)[C@H](CCCNC(=N)N)NC(=O)[C@H](CC(N)=O)NC(=O)[C@H](CC(N)=O)NC(=O)[C@@H](N)CCCN)C(C)C)C(=O)N1CCC[C@H]1C(=O)N[C@@H](CCC(N)=O)C(=O)N1CCC[C@H]1C(=O)N[C@@H](CCCNC(=N)N)C(=O)N1CCC[C@H]1C(=O)N1CCC[C@H]1C(=O)N[C@@H](Cc1c[nH]cn1)C(=O)N1CCC[C@H]1C(=O)N[C@@H](CCCNC(=N)N)CC(=O)N[C@@H](CC(C)C)C(N)=O [compound 121] (H-[Orn]NNRPVYIPQPRPPHP[β3hR]L-NH2)
E. coli 45849; [4]
  MIC E. coli 45849: 128 µg/mL (≈ 58.8 µM)
E. coli D31
  MIC E. coli D31: 16 µg/mL (≈ 7.34 µM)
K. Pneumonia 123132; [4]
  MIC K. Pneumonia 123132: 128 µg/mL (≈ 58.8 µM)
[1]
  MIC K. Pneumonia K6, ATCC 700603: >128 µg/mL

## CC[C@H](C)[C@H](NC(=O)[C@H](Cc1ccc(O)cc1)NC(=O)[C@@H](NC(=O)[C@@H]1CCCN1C(=O)[C@H](CCCNC(=N)N)NC(=O)[C@H](CC(N)=O)NC(=O)[C@H](CC(N)=O)NC(=O)CNC(C)=O)C(C)C)C(=O)N1CCC[C@H]1C(=O)N[C@@H](CCC(N)=O)C(=O)N1CCC[C@H]1C(=O)N[C@@H](CCCNC(=N)N)C(=O)N1CCC[C@H]1C(=O)N1CCC[C@H]1C(=O)N[C@@H](Cc1c[nH]cn1)C(=O)N1CCC[C@H]1C(=O)N[C@@H](CCCCNC(=N)N)C(=O)N[C@@H](CC(C)C)C(N)=O [compound 132] (Ac-GNNRPVYIPQPRPPHP[hArg]L-NH2)
E. coli BL 21 AI
  MIC E. coli BL 21 AI: 32 µg/mL (≈ 14.8 µM)
M. luteus ATCC 10240
  MIC M. luteus ATCC 10240: 32 µg/mL (≈ 14.8 µM)
E. coli 1103
  MIC E. coli 1103: 64 µg/mL (≈ 29.6 µM)
K. pneumonia 681
  MIC K. pneumonia 681: 32 µg/mL (≈ 14.8 µM)
B. subtilis 347
  MIC B. subtilis 347: 128 µg/mL (≈ 59.2 µM)

## CC[C@H](C)[C@H](NC(=O)[C@H](Cc1ccc(O)cc1)NC(=O)[C@@H](NC(=O)[C@@H]1CCCN1C(=O)[C@H](CCCNC(=N)N)NC(=O)[C@H](CC(N)=O)NC(=O)[C@H](CC(N)=O)NC(=O)CN=C(N(C)C)N(C)C)C(C)C)C(=O)N1CCC[C@H]1C(=O)N[C@@H](CCC(N)=O)C(=O)N1CCC[C@H]1C(=O)N[C@@H](CCCNC(=N)N)C(=O)N1CCC[C@H]1C(=O)N1CCC[C@H]1C(=O)N[C@@H](Cc1c[nH]cn1)C(=O)N1CCC[C@H]1C(=O)N[C@@H](CCCCNC(=N)N)C(=O)N[C@@H](CC(C)C)C(N)=O [compound 133] (X1-NNRPVYIPQPRPPHP[hArg]L-NH2; N-terminus and C-terminus assumed)
S. typhi S5
  MIC S. typhi S5: 16 µg/mL (≈ 7.21 µM)
E. coli D31
  MIC E. coli D31: 16 µg/mL (≈ 7.21 µM)
[2]
  MIC S. enterica subsp. Enterica serovar. typhi G10215 ATCC 700408: 2 µg/mL (≈ 0.901 µM)
M. luteus ATCC 10240
  MIC M. luteus ATCC 10240: 32 µg/mL (≈ 14.4 µM)
E. coli 1103
  MIC E. coli 1103: 16 µg/mL (≈ 7.21 µM)
K. pneumonia 681
  MIC K. pneumonia 681: 8 µg/mL (≈ 3.6 µM)
